Measured values reported in the OPERA property sets (Mansouri et al. 2018).

Conditions: for log10 biotransformation half-life (days) / log10 BCF: fish

| Structure (SMILES) | boiling point [°C] | melting point [°C] | further results |
| --- | --- | --- | --- |
| Nc1ccccc1CO | 273 | 83.5 |  |
| CCCC(=O)OC1CCCCC1 | 213 |  |  |
| C[C@H]1CC=CCC1 | 103 | -116 |  |
| O=CC(Cl)(Cl)Cl | 97.8 | -57.5 | log10 Henry constant (atm·m³/mol): -8.54; log10 vapour pressure (mmHg): 1.7; ready biodegradability: not readily biodegradable |
| O=C(O)c1cccc(C(F)(F)F)c1 | 238 | 106 |  |
| CC(C)=C1CC[C@@H](C)CC1=O | 224 |  | log10 vapour pressure (mmHg): -0.91 |
| CC1=C(/C=C/C(C)=C/C=C/C(C)=C/C=C/C=C(C)/C=C/C=C(C)/C=C/C2=C(C)C[C@H](O)CC2(C)C)C(C)(C)CCC1 |  | 160 |  |
| Clc1cc(Cl)c2c(oc3ccc(Cl)c(Cl)c32)c1Cl |  | 210 |  |
| CCC(C)[N+](=O)[O-] (stereo not given) | 140 |  | log10 vapour pressure (mmHg): 0.891 |
| C=C(C)CCCCCCCCCC |  |  | log10 biotransformation half-life (days): 0.64 |
| N[C@H](Cc1ccccc1)c1ccccc1 | 311 |  |  |
| CCOC(=O)CCCCCCCCCCCCCCCCC(=O)OCC |  | 54.5 |  |
| CCOCOC(=O)c1ccccc1Nc1c(Cl)ccc(C)c1Cl |  | 73.5 |  |
| CC(CCc1ccccc1)NC(C)C(O)c1ccc(O)cc1 (stereo not given) |  | 112 |  |
| N#CNC(=N)N |  | 211 | ready biodegradability: not readily biodegradable; log10 BCF: 0.49 |
| BrCOCBr | 154 | -34 |  |
| CCC(C)(C)O | 102 | -9.1 | log10 Henry constant (atm·m³/mol): -4.86; log10 vapour pressure (mmHg): 1.22; ready biodegradability: not readily biodegradable |
| CO[C@H](C(=O)[C@@H](O)[C@@H](C)O)C1Cc2cc3cc(O[C@H]4C[C@@H](O[C@H]5C[C@@H](O)[C@H](O)[C@@H](C)O5)[C@@H](O)[C@@H](C)O4)c(C)c(O)c3c(O)c2C(=O)[C@H]1O[C@H]1C[C@@H](O[C@H]2C[C@@H](O[C@H]3C[C@](C)(O)[C@H](O)[C@@H](C)O3)[C@H](O)[C@@H](C)O2)[C@H](O)[C@@H](C)O1 (stereo not given in full) |  | 182 |  |
| Cc1ccc(NC(=O)N(C)C)cc1Cl |  | 148 | log10 Koc (L/kg): 2.02; log10 vapour pressure (mmHg): -7.44; ready biodegradability: not readily biodegradable |
| CCN(CC)C(=O)N1CCN(C)CC1 |  | 48 |  |
| COc1cc(OC)n2nc(S(=O)(=O)Nc3c(Cl)ccc(C)c3Cl)nc2n1 |  | 211 |  |
| c1ccc(Cc2ccccn2)cc1 | 277 | 12.5 |  |

| Structure (SMILES) | boiling point [°C] | melting point [°C] | further results |
| --- | --- | --- | --- |
| CCCCCCC[N+](=O)[O-] | 194 |  |  |
| O=C(O)c1nn(Cc2ccc(Cl)cc2Cl)c2ccccc12 |  | 207 |  |
| N#Cc1ccnc2ccccc12 | 242 | 104 |  |
| COc1ccc(C(C)=O)cc1 | 258 | 38.5 | log10 vapour pressure (mmHg): -2.19 |
| CCCc1ccccn1 | 167 | 2 |  |
| CCCC(Br)C(=O)OCC (stereo not given) | 191 |  |  |
| Cc1ccc2c(c1[N+](=O)[O-])C(=O)c1ccccc1C2=O |  | 270 |  |
| CCS(=O)(=O)c1cccnc1S(=O)(=O)NC(=O)Nc1nc(OC)cc(OC)n1 |  | 177 | log10 Koc (L/kg): 1.71 |
| CCCCCCCCOc1ccc(C(=O)c2ccccc2)c(O)c1 |  | 48.5 | ready biodegradability: not readily biodegradable; log10 BCF: 1.9 |
| CC1CCOS(=O)O1 (stereo not given) | 185 | 5 |  |
| OC1CCC1 | 124 |  |  |
| CCOC(=O)C(=O)Cl | 137 |  | log10 vapour pressure (mmHg): 0.882 |
| CCCCC(C)C(C)=O (stereo not given) | 164 |  |  |
| NCCCC[C@H](N)C(=O)O |  |  | log10 vapour pressure (mmHg): -8.28 |
| CCN1CCCCC1 | 131 |  |  |
| O=C1NC(=O)C(c2ccccc2)(c2ccccc2)N1 |  | 296 | ready biodegradability: not readily biodegradable |
| C1CCCCNCCC1 |  | -19 |  |
| Cc1c(F)c(F)c(C(=O)O)c(F)c1F |  | 174 |  |
| CCC(CC)CC | 93.5 | -119 | log10 biodegradation half-life (days): 0.602; log10 vapour pressure (mmHg): 1.76 |
| NC1=C(Cl)C(=O)c2ccccc2C1=O |  | 199 | log10 vapour pressure (mmHg): -6.35 |
| CC(C)c1ccc2ccccc2c1 | 268 | 14.5 | log10 vapour pressure (mmHg): -2.29; log10 biotransformation half-life (days): 1 |
| COCN(COC)c1nc(N(COC)COC)nc(N(COC)COC)n1 |  |  | ready biodegradability: not readily biodegradable; log10 BCF: 0.54 |

| Structure (SMILES) | boiling point [°C] | melting point [°C] | further results |
| --- | --- | --- | --- |
| CCOc1ccc(Cl)cc1Cl | 237 | 32 |  |
| CC=CC(C)C(C)C=CC (stereo not given) | 154 | -64.8 |  |
| O=S(=O)(Cl)c1ccccc1 | 252 | 14.5 | log10 vapour pressure (mmHg): -1.24 |
| CCCCC#N | 141 | -96.2 | log10 Koa: 3.6; log10 vapour pressure (mmHg): 0.863 |
| C=C(C)C(C)(C)CC | 108 | -69 | log10 vapour pressure (mmHg): 1.48 |
| CC(=O)OC1CCCCC1C (stereo not given) |  |  | ready biodegradability: readily biodegradable |
| C=CCOC | 44 |  |  |
| O=C1C2(Cl)C3(Cl)C4(Cl)C(Cl)(Cl)C5(Cl)C3(Cl)C1(Cl)C5(Cl)C24Cl (stereo not given) |  |  | log10 Koc (L/kg): 4.2; log10 vapour pressure (mmHg): -6.65; log10 BCF: 3.19 |
| CC(C)CN=C=S | 160 |  |  |
| COc1cc2c(cc1OC)[C@@]13CCN4CC5=CCO[C@H]6CC(=O)N2[C@H]1[C@H]6[C@H]5C[C@H]43 |  | 178 |  |
| CCC[N+](=O)[O-] | 131 | -108 | log10 Henry constant (atm·m³/mol): -4.06; log10 Koa: 3.25; log10 vapour pressure (mmHg): 1 |
| CNC(=O)N(C)c1nc2ccccc2s1 |  | 120 | log10 Koc (L/kg): 2.8; log10 vapour pressure (mmHg): -6.95 |
| CC(=O)OCC(CO)OC(C)=O (stereo not given) | 259 |  | ready biodegradability: readily biodegradable |
| OC[C@H]1O[C@@H](n2cnc3c2N=CNC[C@H]3O)C[C@@H]1O |  | 220 |  |
| CCCC=NO | 154 | -29.5 |  |
| O=C1OC(=O)[C@H]2[C@@H]1[C@H]1C=C[C@@H]2C1 |  | 164 |  |
| C1OC1C1CO1 (stereo not given) |  |  | log10 Koc (L/kg): 0.4; log10 vapour pressure (mmHg): 1.59 |
| c1ccc2[nH]nnc2c1 | 350 | 100 | log10 Koc (L/kg): 1.69 |
| ClC(Cl)C(Cl)(Cl)C(Cl)Cl | 218 |  |  |
| CCOC(=O)c1ccc(OCC)cc1 | 275 |  |  |
| C#CC(C)(CC)OC(=O)c1ccccc1C(=O)O (stereo not given) |  | 97 |  |
| CCCCCCCCC#CCCCCCCCC(=O)O |  | 48 |  |

| Structure (SMILES) | boiling point [°C] | melting point [°C] | further results |
| --- | --- | --- | --- |
| CC(C(C)(C)C)C(C)(C)C | 159 | -38.7 |  |
| O=C(Nc1ccc(Cl)cc1)c1cc(Cl)cc(Cl)c1O |  | 142 |  |
| ICC(CI)(CI)CI |  | 225 |  |
| CCCCC(CC)CCC(=O)CC(C)C (stereo not given) | 252 |  |  |
| OCc1cccs1 | 207 |  |  |
| O=C(C(=O)c1ccccc1)c1ccccc1 | 347 | 94.8 | log10 vapour pressure (mmHg): -3.68 |
| C=C(CC)C(C)C | 89 |  |  |
| O=C(O)c1ccc(O)c(C(=O)O)c1 |  | 310 |  |
| N#CCCCBr | 206 |  |  |
| C/C=C/CCCO | 159 |  |  |
| CCSc1nc(NC(C)C)nc(NC(C)C)n1 |  | 105 | log10 Koc (L/kg): 3.07; log10 vapour pressure (mmHg): -5.8 |
| CC[Si](CC)(CC)CC | 155 |  | log10 vapour pressure (mmHg): 0.699 |
| CCOc1ccc(NC(=O)C(C)O)cc1 (stereo not given) |  | 118 |  |
| ClC(c1ccccc1)(c1ccccc1)c1ccccc1 | 310 | 114 | ready biodegradability: not readily biodegradable; log10 BCF: 2.63; log10 biotransformation half-life (days): -0.15 |
| C[C@H]1[C@H]2CC[C@H]3[C@@H]4CC=C5C[C@@H](N(C)C)CC[C@]5(C)[C@H]4CC[C@]23CN1C |  | 126 |  |
| N#CCN |  | 101 |  |
| CCCCCCCCCCCCCCCCCC(CC)c1ccccc1 (stereo not given) |  | 29.3 |  |
| CCOC(=O)n1ccn(C)c1=S |  | 124 |  |
| CC(=O)C=NO |  | 69 |  |
